# Test results taken from patent US20260216197A1, “WRN HELICASE INHIBITOR” (SUZHOU PUHE BIOPHARMA CO., LTD., priority 2022, published 2026).
# Like-named read-outs stand apart in the source and are kept apart here.
# Tests used:
# WRN helicase = WRN helicase (Homo sapiens, UniProt Q14191); experiment: WRN helicase hydrolysis/unwinding of double-stranded DNA (fluorescence); type: biochemical
# Procedure: The activity of the molecules of the present disclosure on the hydrolysis of double-stranded PP-6TR DNA by WRN helicase was tested.
# The working solution and buffer were prepared, and the test compound was dissolved in DMSO followed by a4-fold dilution (with a final concentration of 10 μM as the starting concentration). Then, 0.2 μL of the test compound solution was added to a384-well plate, followed by 10 μL of (2×) WRN enzyme solution. The mixture was incubated in the dark for 30 minutes, after which 10 μL of substrate detection solution containing double-stranded DNA was added to initiate the reaction (DNA length: 19 bp, labeled with TAMRA at the 3′ end and BHQ2 at the 5′ end). The mixture was incubated at room temperature for 60 minutes. The inhibitory activity (IC50) against the WRN enzyme was calculated based on the fluorescence change (Ex530/Em590) between the blank group (DMSO) and the compound group.
# [1] = system: MSS colorectal cancer HT-29 cell line; experiment: 2D anti-proliferative activity, MSS HT-29 cells (CTG, 5 days); type: cell-based
# Procedure: The molecules of the present disclosure were tested for their anti-proliferative activity against MSS tumor cells.
# (§1) The MSS HT-29 colorectal cancer cells were cultured in McCoy's 5A medium containing 10% FBS and 1% penicillin-streptomycin in a 37° C., 5% CO2 constant temperature incubator. A 40 μL cell suspension was added to each well of a 384-well microplate. Using Echo, 40 nL of compounds at different concentrations was dispensed into each well, followed by incubation in a 37° C., 5% CO2 constant temperature incubator for 5 days. Then, 40 μL of CTG solution (Promega, Cat No. G7573) was added to each well, and the plate was incubated in the dark in a 37° C., 5% CO2 constant temperature incubator for 30 minutes. Luminescence was measured using an Envision multi-function microplate reader (Perkin Elmer, Model: Envision 2104). The luminescent signal was proportional to the amount of ATP in the system, and the amount of ATP directly represented the number of living cells in the system.
# [2] = system: MSI-H colorectal cancer SW48 cell line; experiment: 2D anti-proliferative activity, MSI-H SW48 cells (CTG, 5 days); type: cell-based; settings: for IC50: 5 days; for inhibition at 38.15 pM: 0.038146973 nM; for inhibition at 0.000152588 µM: 0.152587891 nM; for inhibition at 0.000610352 µM: 0.610351563 nM; for inhibition at 0.00244141 µM: 2.44140625 nM; for inhibition at 0.00976562 µM: 9.765625 nM; for inhibition at 0.0390625 µM: 39.0625 nM; for inhibition at 0.15625 µM: 156.25 nM; for inhibition at 0.625 µM: 625 nM; for inhibition at […]: 2500 nM; for inhibition at 10 µM: 10000 nM
# Procedure: The molecules of the present disclosure were tested for their anti-proliferative activity against MSI-H tumor cells.
# The proliferation of tumor cells with microsatellite instability MSI-H is sensitive to WRN inhibitors, while the proliferation of microsatellite stable (MSS) tumor cells is insensitive to WRN inhibitors. By testing the activities of the two, it is shown that the molecules of the present disclosure have an inhibitory and synthetic lethal effect on WRN at the cellular level.
# as §1, with “MSI-unstable SW48” for “MSS HT-29”, “RPMI 1640” for “McCoy's 5A”
# [3] = Liver microsome stability test; type: in vitro ADME; settings: human liver microsomes 0.5 mg/mL, compound 1 μM, NADPH 1 mM, 60 minutes; for microsomal CLint at 1 μM: read-out: Human Clint μL/min/mg Protein
# Procedure: The liver microsome stability test of the compounds is as follows:
# The compounds of the present disclosure were subjected to a liver microsome stability test. The compounds to be tested were co-incubated with liver microsomes of different species with or without the addition of NADPH. The final concentration of the compounds to be tested in the test system was 1 μM, the final concentration of NADPH was 1 mM, and the final concentration of liver microsomes was 0.5 mg/mL.
# [4] = Pharmacokinetic evaluation in mice; type: in vivo, CD1 female mice; settings: for AUC(0-t): read-out: AUC0-24
# Procedure: CD1 female mice were used as test animals and the drug was administered orally/intravenously (oral dosage: 10 mg/kg, intravenous dosage: 2 mg/kg).
# Assay protocol: The oral group consisted of 3 mice per group (vehicle: 10% Hβ-CD-pH7.4), and the intravenous group consisted of 3 mice per group. […] The blood concentrations in plasma after oral and intravenous administration of mice were determined by LC/MS/MS, respectively.
# [5] = female, CD1, mouse, plasma, IV 2 mg/kg
# [6] = female, CD1, mouse, plasma, PO 10 mg/kg
# [7] = Homo sapiens, read-out: Average value/ Inhibition rate
# [8] = Homo sapiens, read-out: Test 1/ Inhibition rate
# [9] = Homo sapiens, read-out: Test 2/ Inhibition rate
# WRN helicase, sequence (Q14191 whole entry): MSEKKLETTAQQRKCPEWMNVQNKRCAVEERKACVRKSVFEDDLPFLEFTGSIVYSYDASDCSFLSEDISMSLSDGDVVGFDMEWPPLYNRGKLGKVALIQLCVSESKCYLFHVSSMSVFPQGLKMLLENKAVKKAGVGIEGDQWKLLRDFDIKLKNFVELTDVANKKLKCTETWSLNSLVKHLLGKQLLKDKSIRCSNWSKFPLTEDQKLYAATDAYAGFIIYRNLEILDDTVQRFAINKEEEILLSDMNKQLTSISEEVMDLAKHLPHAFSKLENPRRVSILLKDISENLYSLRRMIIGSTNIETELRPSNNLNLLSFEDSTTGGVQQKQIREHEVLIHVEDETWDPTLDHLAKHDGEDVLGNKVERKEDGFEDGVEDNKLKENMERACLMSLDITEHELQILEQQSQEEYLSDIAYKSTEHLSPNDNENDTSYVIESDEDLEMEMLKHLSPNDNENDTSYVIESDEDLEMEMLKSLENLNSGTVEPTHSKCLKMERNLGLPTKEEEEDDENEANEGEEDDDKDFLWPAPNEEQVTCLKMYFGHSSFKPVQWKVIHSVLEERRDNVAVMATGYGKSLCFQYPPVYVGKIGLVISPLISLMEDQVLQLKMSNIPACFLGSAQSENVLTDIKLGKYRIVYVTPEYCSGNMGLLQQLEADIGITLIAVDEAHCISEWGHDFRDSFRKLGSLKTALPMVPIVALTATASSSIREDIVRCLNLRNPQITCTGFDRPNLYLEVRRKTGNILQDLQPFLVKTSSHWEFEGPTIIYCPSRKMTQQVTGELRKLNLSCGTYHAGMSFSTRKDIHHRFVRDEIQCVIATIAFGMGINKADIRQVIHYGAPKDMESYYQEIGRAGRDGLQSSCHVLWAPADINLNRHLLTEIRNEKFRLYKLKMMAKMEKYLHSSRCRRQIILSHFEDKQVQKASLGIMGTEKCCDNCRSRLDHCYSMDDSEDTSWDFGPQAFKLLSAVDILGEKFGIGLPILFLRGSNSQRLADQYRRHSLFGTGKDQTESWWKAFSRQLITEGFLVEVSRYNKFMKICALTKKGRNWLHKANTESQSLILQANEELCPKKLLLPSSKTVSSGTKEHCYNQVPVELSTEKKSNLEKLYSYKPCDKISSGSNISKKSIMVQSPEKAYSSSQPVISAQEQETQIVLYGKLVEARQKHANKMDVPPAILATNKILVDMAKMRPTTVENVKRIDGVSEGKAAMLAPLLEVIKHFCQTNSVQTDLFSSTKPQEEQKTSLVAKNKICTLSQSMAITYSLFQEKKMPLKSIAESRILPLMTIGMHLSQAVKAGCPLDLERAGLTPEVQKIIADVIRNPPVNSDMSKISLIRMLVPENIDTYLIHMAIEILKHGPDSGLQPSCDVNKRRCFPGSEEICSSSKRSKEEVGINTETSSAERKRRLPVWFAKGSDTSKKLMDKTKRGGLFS
compound,measurement,setting,value
CCc1c(N2CCN(C(=O)c3ncccc3O)CC2)c(=O)n2nc(C3=CCOCC3)nc2n1CC(=O)Nc1ccc(C(F)(F)F)c2ccsc12 [Compound H2],IC50,WRN helicase,1.4 nM
same,IC50,"[1]; Homo sapiens, 120 h",3500 nM
same,IC50,"[2]; Homo sapiens, 120 h",131 nM
same,CLint scaled at 1 μM,[3],19.7 mL/min/kg
same,microsomal CLint at 1 μM,[3],15.7 µL/min/mg
CCc1c(N2CCN(C(=O)c3ncnc(C)c3O)CC2)c(=O)n2nc(C3=CCOCC3)nc2n1CC(=O)Nc1ccc(C(F)(F)F)c2c1OCC2 [Compound H3],IC50,WRN helicase,1.6 nM
same,IC50,[1],> 10000 nM
same,IC50,[2],216 nM
same,Human Clint μL/min/mg Protein,[3],2.2 μL/min/mg Protein
same,Human Clint/(mL/min/kg),[3],2.7 mL/min/kg
CCc1c(N2CCN(C(=O)c3ncccc3O)CC2)c(=O)n2nc(C3=CCC(OC)CC3)nc2n1CC(=O)Nc1ccc(C(F)(F)F)c2ccsc12 (stereo not drawn) [Compound H8],IC50,WRN helicase,1.3 nM
same,IC50,"[1]; Homo sapiens, 120 h",1480 nM
same,IC50,"[2]; Homo sapiens, 120 h",124 nM
CCc1c(N2CCN(C(=O)c3ncccc3O)CC2)c(=O)n2nc(N3CCOCC3)nc2n1CC(=O)Nc1ccc(C(F)(F)F)c2ccsc12 [Compound H9],IC50,WRN helicase,1.7 nM
same,IC50,"[1]; Homo sapiens, 120 h",> 10000 nM
same,IC50,"[2]; Homo sapiens, 120 h",193 nM
same,CLint scaled at 1 μM,[3],13 mL/min/kg
same,microsomal CLint at 1 μM,[3],10.3 µL/min/mg
CCc1c(N2CCN(C(=O)c3ncccc3O)CC2)c(=O)n2nc(N3CCC[C@H](F)C3)nc2n1CC(=O)Nc1ccc(C(F)(F)F)c2ccsc12 [Compound H11],IC50,WRN helicase,2.4 nM
same,IC50,"[1]; Homo sapiens, 120 h",7410 nM
same,IC50,"[2]; Homo sapiens, 120 h",1140 nM
CCc1c(N2CCN(C(=O)c3ncnc(C)c3O)CC2)c(=O)n2nc(C3=CCOCC3)nc2n1CC(=O)Nc1ccc(C(F)(F)F)c2sccc12 [Compound H13],F,[4]; PO 10 mg/kg vs IV 2 mg/kg,24%
same,clearance,[4]; [5],42.9 mL/min/kg
same,AUC(0-t),[4]; [5],722 ng·h/mL
same,C0,"[4]; female, CD1, mouse, plasma, IV 2 mg/kg, read-out: C0",2530 ng/mL
same,half-life,[4]; [6],66 min
same,AUC(0-t),[4]; [6],943 ng·h/mL
same,Cmax,"[4]; female, CD1, mouse, plasma, PO 10 mg/kg, read-out: Cmax",551 ng/mL
same,Tmax,"[4]; female, CD1, mouse, plasma, PO 10 mg/kg, read-out: Tmax",30 min
same,IC50,WRN helicase,1.2 nM
same,IC50,"[1]; Homo sapiens, 120 h",> 10000 nM
same,inhibitory activity on SW48 cells,[2]; 39 nM,high inhibitory activity
same,inhibition at 38.15 pM,[2]; [7],-1.31%
same,inhibition at 38.15 pM,[2]; [8],-1.51%
same,inhibition at 38.15 pM,[2]; [9],-1.1%
same,inhibition at 0.000152588 µM,[2]; [7],0.853%
same,inhibition at 0.000152588 µM,[2]; [8],2.48%
same,inhibition at 0.000152588 µM,[2]; [9],-0.775%
same,inhibition at 0.000610352 µM,[2]; [7],-1.43%
same,inhibition at 0.000610352 µM,[2]; [8],-3.56%
same,inhibition at 0.000610352 µM,[2]; [9],0.706%
same,inhibition at 0.00244141 µM,[2]; [7],-3.17%
same,inhibition at 0.00244141 µM,[2]; [8],0.0291%
same,inhibition at 0.00244141 µM,[2]; [9],-6.36%
same,inhibition at 0.00976562 µM,[2]; [7],0.332%
same,inhibition at 0.00976562 µM,[2]; [8],-3.9%
same,inhibition at 0.00976562 µM,[2]; [9],4.57%
same,inhibition at 0.0390625 µM,[2]; [7],76.4%
same,inhibition at 0.0390625 µM,[2]; [8],76.2%
same,inhibition at 0.0390625 µM,[2]; [9],76.6%
same,inhibition at 0.15625 µM,[2]; [7],97.6%
same,inhibition at 0.15625 µM,[2]; [8],98.6%
same,inhibition at 0.15625 µM,[2]; [9],96.6%
same,inhibition at 0.625 µM,[2]; [7],99.4%
same,inhibition at 0.625 µM,[2]; [8],99.6%
same,inhibition at 0.625 µM,[2]; [9],99.2%
same,inhibition at […],[2]; [7],99.6%
same,inhibition at […],[2]; [8],99.7%
same,inhibition at […],[2]; [9],99.5%
same,inhibition at 10 µM,[2]; [7],101%
same,inhibition at 10 µM,[2]; [8],103%
same,inhibition at 10 µM,[2]; [9],100%
same,IC50,"[2]; Homo sapiens, 120 h",28 nM
same,CLint scaled at 1 μM,[3],7.9 mL/min/kg
same,microsomal CLint at 1 μM,[3],6.3 µL/min/mg
CCc1c(N2CCN(C(=O)c3ncnc(C)c3O)CC2)c(=O)n2nc(C3=CCOCC3)nc2n1CC(=O)Nc1ccc(C(F)(F)F)c2ncsc12 [Compound H14],IC50,WRN helicase,3.9 nM
same,IC50,"[1]; Homo sapiens, 120 h",> 10000 nM
same,IC50,"[2]; Homo sapiens, 120 h",2200 nM
CCc1c(N2CCN(C(=O)c3nccc(Cl)c3O)CC2)c(=O)n2nc(C3=CCOCC3)nc2n1CC(=O)Nc1ccc(C(F)(F)F)c2ccsc12 [Compound H19],IC50,WRN helicase,0.9 nM
same,IC50,"[1]; Homo sapiens, 120 h",> 10000 nM
same,IC50,"[2]; Homo sapiens, 120 h",125 nM
same,CLint scaled at 1 μM,[3],0.73 mL/min/kg
same,microsomal CLint at 1 μM,[3],0.58 µL/min/mg
CCc1c(N2CCN(C(=O)c3nccc(F)c3O)CC2)c(=O)n2nc(C3=CCOCC3)nc2n1CC(=O)Nc1ccc(C(F)(F)F)c2ccsc12 [Compound H20],IC50,WRN helicase,1 nM
same,IC50,"[1]; Homo sapiens, 120 h",> 10000 nM
same,IC50,"[2]; Homo sapiens, 120 h",75 nM
same,CLint scaled at 1 μM,[3],25.9 mL/min/kg
same,microsomal CLint at 1 μM,[3],20.6 µL/min/mg
